We go through seven compounds from patent US11912683B1 (priority 2023, dated 2024).

≈ marks a conversion by molar mass, not a printed value.

The subject of this assay is multidrug-resistant (MDR) strains of Mycobacterium tuberculosis. Description: microbe, parasite or virus in culture. The format is cell-based. Conditions: 192 h, read-out: Anti-tubercular activity against Mycobacterium tuberculosis MDR (MIC).
Turning to `CC1=C(C(=O)N2CCCCC2)C(c2ccc([N+](=O)[O-])cc2)NC(=S)N1` (stereo not shown) [DHPM-KN5, (6-Methyl-4-(4-nitrophenyl)-2-thioxo-1,2,3,4-tetrahydropyrimidin-5-yl)(piperidin-1-yl)methanone], the MIC is 32 mg/L (≈ 88.8 µM).

Take `COc1ccc(C2NC(=S)NC(C)=C2C(=O)N2CCCCC2)cc1` (stereo not shown) [DHPM-KN7, (4-(4-Methoxyphenyl)-6-methyl-2-thioxo-1,2,3,4-tetrahydropyrimidin-5-yl)(piperidin-1-yl)methanone]: the MIC is 256 mg/L (≈ 741 µM).

For the compound `CC1=C(C(=O)N2CCCCC2)C(c2ccccc2)NC(=S)N1` (stereo not shown) [DHPM-KN1, (6-Methyl-4-phenyl-2-thioxo-1,2,3,4-tetrahydropyrimidin-5-yl)(piperidin-1-yl)methanone], the MIC amounted to 64 mg/L (≈ 203 µM).

As to `CC1=C(C(=O)N2CCCCC2)C(c2ccc(Br)cc2)NC(=S)N1` (stereo not shown) [DHPM-KN6, (4-(4-Bromophenyl)-6-methyl-2-thioxo-1,2,3,4-tetrahydropyrimidin-5-yl)(piperidin-1-yl)methanone], the MIC stood at 128 mg/L (≈ 325 µM).

Take `CC1=C(C(=O)N2CCCCC2)C(c2ccc(C(F)(F)F)cc2)NC(=S)N1` (stereo not shown) [DHPM-KN10, (6-Methyl-2-thioxo-4-(4-(trifluoromethyl)phenyl)-1,2,3,4-tetrahydropyrimidin-5-yl)(piperidin-1-yl)methanone]: the MIC came to 256 mg/L (≈ 668 µM).

On to `CC1=C(C(=O)N2CCCCC2)C(c2ccccc2C)NC(=S)N1` (stereo not shown) [DHPM-KN8, (6-Methyl-2-thioxo-4-(o-tolyl)-1,2,3,4-tetrahydropyrimidin-5-yl)(piperidin-1-yl)methanone], for which the MIC worked out at 256 mg/L (≈ 777 µM).

In the case of `COC(=O)C1=C(C)NC(=O)NC1c1ccc([N+](=O)[O-])cc1[N+](=O)[O-]` (stereo not shown) [DHPM-KN4, Methyl 4-(2,4-dinitrophenyl)-6-methyl-2-oxo-1,2,3,4-tetrahydropyrimidine-5-carboxylate], the MIC is 64 mg/L (≈ 190 µM).
